Test results as given in the NIST ThermoML archive (doi:10.1016/j.fluid.2006.06.022).
Numbers after ± are expanded uncertainties.

Settings: Liquid, Ebulliometric method (Recirculating still)

| vapor or sublimation pressure (313.15 K) [kPa] | vapor or sublimation pressure (323.15 K) [kPa] | vapor or sublimation pressure (333.15 K) [kPa] | vapor or sublimation pressure (343.15 K) [kPa] | vapor or sublimation pressure (353.15 K) [kPa] | vapor or sublimation pressure (363.15 K) [kPa] | Compound |
| --- | --- | --- | --- | --- | --- | --- |
| 1831 ± 9 | 2307 ± 10 | 2874 ± 13 |  |  |  | CC(F)(F)F [1,1,1-trifluoroethane] |
| 1374 ± 6 | 1712 ± 8 | 2115 ± 9 | 2586 ± 11 | 3151 ± 14 | 3767 ± 16 | CCC [propane] |
